# Data taken from US8779141B2, “Viral inhibitors” (Gilead Sciences, Inc., priority 2002, dated 2014).
# Read-outs that look alike come from different tables or passages of the source.
# Experiments:
# MDBK cells = assay: Cytostatic effect on exponentially growing MDBK cells (MTS); assay type: cell-based, Bovine; details: for MTC: Table 10, mean toxic concentration, reduces growth of exponentially growing MDBK cells by 50%
# Procedure: (§1) Madin-Darbey Bovine Kidney (MDBK) cells were maintained in Dulbecco's modified Eagle medium (DMEM) supplemented with BVDV-free 5% fetal calf serum ([…]) at 37° C. in a humidified, 5% CO2 atmosphere. […] Vero cells were maintained in the same way as MDBK cells. […] The effect of the drugs on exponentially growing MDBK cells was assessed as follows. Cells were seeded at a density of 5000 cell/well in 96 well plates in MEM medium (Gibco) supplemented with 10% fetal calf serum, 2 mM L-glutamine (Life Technologies) and bicarbonate (Life Technologies). […] Cultures were then again further incubated for 3 days after which the effect on cell growth was quantified by means of the MTS method (Promega).
# BVDV-1 (strain PE515) = assay: Anti-BVDV assay, virus-induced cytopathic effect in MDBK cells (MTS); assay type: cell-based, Bovine Viral Diarrhea Virus
# Procedure: (§2) Madin-Darbey Bovine Kidney (MDBK) cells were maintained in Dulbecco's modified Eagle medium (DMEM) supplemented with BVDV-free 5% fetal calf serum (DMEME-FCS) at 37° C. in a humidified, 5% CO2 atmosphere. BVDV-1 (strain PE515) was used to assess the antiviral activity in MDBK cells. Vero cells were maintained in the same way as MDBK cells. Vero cells were infected with Coxsackie B3 virus (strain Nancy).
# Ninety-six-well cell culture plates were seeded with MDBK cells in DMEM-FCS so that cells reached 24 hr later confluency. Then medium was removed and serial 5-fold dilutions of the test compounds were added in a total volume of 100 ul, after which the virus inoculum (100 ul) was added to each well. […] Uninfected cells and cells receiving virus without compound were included in each assay plate. After 5 days, medium was removed and 90 μl of DMEM-FCS and 10 ul of MTS/PMS solution (Promega) was added to each well. Following a 2 hr incubation period at 37° C. the optical density of the wells was read at 498 nm in a microplate reader.
# [1] = Proliferation of exponentially growing Huh-5-2 cells (MTS); assay type: cell-based; details: human, exponentially growing Huh-5-2 cells (HCV replicon cell line); Table 11; inhibition of proliferation of exponentially growing Huh-5-2 cells by 50%
# Procedure: (§3) Cells were seeded at a density of 7000 cells per well in 96 well View Plate™ (Packard) in medium containing the same components as described above, except for G418. Cells were allowed to adhere and proliferate for 24 hr. At that time, culture medium was removed and serial dilutions of the test compounds were added in culture medium lacking G418. Interferon alfa 2a (500 IU) was included as a positive control. Plates were further incubated at 37° C. and 5% CO2 for 72 hours. Replication of the HCV replicon in Huh-5 cells results in luciferase activity in the cells. Luciferase activity is measured by adding 50 μl of 1× Glo-lysis buffer (Promega) for 15 minutes followed by 50 ul of the Steady-Glo Luciferase assay reagent (Promega). Luciferase activity is measured with a luminometer and the signal in each individual well is expressed as a percentage of the untreated cultures. […] Instead the density of the culture is measured by means of the MTS method (Promega).
# [2] = Cytostatic effect on exponentially growing MDBK cells (MTS); assay type: cell-based, Bovine; details: bovine; Table 9; reduction of growth of exponentially growing MDBK cells by 50%; mean of 2-5 determinations
# Procedure: as §1
# [3] = test system: HCV replicon in Huh-5-2 cells; assay: Anti-HCV replicon assay, luciferase activity in Huh-5-2 cells; assay type: cell-based; details: Hepatitis C virus, Table 11, inhibition of luciferase activity in the replicon system by 50%
# Procedure: as §3
# [4] = test system: Coxsackie B3 virus (strain Nancy); assay: Anti-coxsackie virus assay, cytopathic effect in Vero cells (MTS); assay type: cell-based; details: Enterovirus B, Table 13, reduction of virus (CBV-3 Nancy strain)-induced cytopathic effect in Vero cells by 50%
# Procedure: as §2
# (§4) Ninety-six-well cell culture plates were seeded with Vero cells in DMEM medium containing 10 fetal calf serum (FCS) so that cells reached confluency 24-48 hr later. Medium was then removed and serial 5-fold dilutions of the test compounds were added in a total volume of 100 ul, after which the virus inoculum (100 μl) was added to each well. […] Uninfected cells and cells receiving virus without compound were included in each asay plate. After 5 days, the medium was removed and 90 μl of DMEM-FCS and 10 μl of MTS/PMS solution (Promega) was added to each well. Following a 2 hr incubation period at 37° C., the optical density of the wells was read at 498 nm in a microplate reader. The 50% effective concentration (EC50) value was defined as the concentration of compound that protects 50% of the cell monolayer from virus-induced cytopathic effect.
# Vero cells = assay: Metabolism of confluent Vero cells (MTS); assay type: cell-based; details: Table 13; reduction of metabolism of confluent Vero cells by 50%, MTS method
# Procedure: as §2, §4
# [5] = test system: HCV replicon (RNA) synthesis in Huh-5-2 cells; assay: Quantitative analysis of HCV replicon RNA by Taqman real-time RT-PCR in Huh-5-2 cells; assay type: cell-based, Hepatitis C Virus; details: for Delta CT: higher value = more profound inhibition of viral RNA synthesis; for CT: real-time RT-PCR, untreated 28.86 ± 0.04
# Procedure: Replicon cells were plated at 7.5×10^3 cells per well in a 96-well plate plates at 37° C. and 5% CO2 in Dulbecco's modified essential medium containing 10% fetal calf serum, 1% nonessential amino acids and 1 mg/ml Geneticin. After allowing 24 h for cell attachment, different dilutions of compound were added to the cultures. Plates were incubated for 5 days, at which time RNA was extracted using the Qiamp Rneazyi Kit (Qiagen, Hilden, Germany). […] After initial activation of uracil-N-glycosylase at 50° C. for 2 minutes, RT was performed at 60° C. for 30 minutes, followed by inactivation of uracil-N-glycosylase at 95° C. for 5 minutes. Subsequent PCR amplification consisted of 40 cycles of denaturation at 94° C. for 20 seconds and annealing and extension at 62° C. for 1 minute in an ABI 7700 sequence detector. For each PCR run, negative template and positive template samples were used. The cycle threshold value (Ct-value) is defined as the number of PCR cycles for which the signal exceeds the baseline, which defines a positive value. The sample was considered to be positive if the Ct-value was <50. Results are expressed as genomic equivalents (GE).
# [6] = Bovine viral diarrhea virus isolates and strains, Table 10, reduction of virus induced cytopathic effect in MDBK cells by 50%, read-out: EC50
# [7] = Bovine viral diarrhea virus isolates and strains, Table 9, reduction of virus induced cytopathic effect in MDBK cells by 50%, BVDV strain PE515, mean of 2-5 determinations, read-out: EC50
smiles,measurement,setting,value
"Clc1cn(Cc2ccc(Br)cc2)cc2nc(-c3ccccc3)nc1-2 [GPJN-103, 5-[(4-Bromophenyl)methyl]-7-chloro-2-phenyl-5H-imidazo[4,5-c]pyridine]",MTC,MDBK cells,20 µg/mL
same,EC50,BVDV-1 (strain PE515); [6],0.061 µg/mL
"Brc1ccc(Cn2ccc3nc(-c4cccc5ccccc45)nc-3c2)cc1 [GPJN-62, 5-[(4-Bromophenyl)methyl]-2-(1-naphthalenyl)-5H-imidazo[4,5-c]pyridine]",CC50 at 72 hours,[1],6 µg/mL
same,CC50 at 3 days,[2],9.4 µg/mL
same,EC50,[3],< 0.62 µg/mL
same,EC50,BVDV-1 (strain PE515); [7],0.12 µg/mL
"COc1cccc(-c2nc3ccn(Cc4ccc(Br)cc4)cc-3n2)c1 [GPJN-64, 5-[(4-Bromophenyl)methyl]-2-(3-methoxyphenyl)-5H-imidazo[4,5-c]pyridine]",CC50 at 3 days,[2],> 100 µg/mL
same,EC50,[4],12 µg/mL
same,TC50,Vero cells,>42 µg/mL
same,EC50,BVDV-1 (strain PE515); [7],0.026 µg/mL
"Fc1ccc(Cn2ccc3nc(-c4c(F)cccc4F)nc-3c2)c(F)c1 [GPJN-40, 2-(2,6-Difluorophenyl)-5-[(2,4-difluorophenyl)methyl]-5H-imidazo[4,5-c]pyridine]",CC50 at 3 days,[2],> 100 µg/mL
same,EC50,[4],8.95 µg/mL
same,TC50,Vero cells,>100 µg/mL
same,EC50,BVDV-1 (strain PE515); [7],0.25 µg/mL
"c1ccc(-c2ccc(Cn3ccc4nc(-c5ccccc5)nc-4c3)cc2)cc1 [GPJN-32, 5-([1,1′-Biphenyl]-4-ylmethyl)-2-phenyl-5H-imidazo[4,5-c]pyridine]",CC50 at 3 days,[2],20 µg/mL
same,EC50,[4],6.5 µg/mL
same,TC50,Vero cells,69 µg/mL
same,EC50,BVDV-1 (strain PE515); [7],0.027 µg/mL
"Brc1ccc(Cn2ccc3nc(-c4ccccn4)nc-3c2)cc1 [GPJN-58, 5-[(4-Bromophenyl)methyl]-2-(2-pyridinyl)-5H-imidazo[4,5-c]pyridine]",CC50 at 72 hours,[1],2 µg/mL
same,CC50 at 3 days,[2],8.1 µg/mL
same,Delta CT,[5]; 0.0016 ug/ml,0.05
same,CT,[5]; 0.0016 ug/ml,28.91
same,Delta CT,[5]; 0.008 ug/ml,0.89
same,CT,[5]; 0.008 ug/ml,29.75
same,Delta CT,[5]; 0.04 ug/ml,1.03
same,CT,[5]; 0.04 ug/ml,29.89
same,Delta CT,[5]; 0.2 ug/ml,1.14
same,CT,[5]; 0.2 ug/ml,30.00
same,Delta CT,[5]; 1 ug/ml,4
same,CT,[5]; 1 ug/ml,32.86
same,EC50,[3],0.13 µg/mL
same,EC50,BVDV-1 (strain PE515); [7],0.052 µg/mL
"c1ccc(-c2nc3ccn(Cc4cccc5ccccc45)cc-3n2)cc1 [GPJN-36, 5-(1-Naphthalenylmethyl)-2-phenyl-5H-imidazo[4,5-c]pyridine]",CC50,"MDBK cells; Table 9, reduction of growth of exponentially growing MDBK cells by 50%, mean of 2-5 determinations",24 µg/mL
same,EC50,"BVDV-1 (strain PE515); Table 9, reduction of virus induced cytopathic effect in MDBK cells by 50%, BVDV strain PE515, mean of 2-5 determinations",0.019 µg/mL
"Clc1c2nc(-c3ccccc3)nc-2ccn1Cc1ccc(Br)cc1 [GPJN-96, 5-[(4-Bromophenyl)methyl]-4-chloro-2-phenyl-5H-imidazo[4,5-c]pyridine]",CC50 at 72 hours,[1],4 µg/mL
same,EC50,[3],1 µg/mL
"CC(C)(C)c1ccc(Cn2ccc3nc(-c4ccccc4)nc-3c2)cc1 [GPJN-16, 5-[[4-(1,1-Dimethylethyl)phenyl]methyl]-2-phenyl-5H-imidazo[4,5-c]pyridine]",CC50 at 72 hours,[1],3 µg/mL
same,CC50 at 3 days,[2],8.1 µg/mL
same,EC50,[3],1 µg/mL
same,EC50,BVDV-1 (strain PE515); [7],0.246 µg/mL
"c1ccc(-c2ccc(Cn3ccc4nc(-c5cccc6ccccc56)nc-4c3)cc2)cc1 [GPJN-115, 5-([1,1′-Biphenyl]-4-ylmethyl)-2-(1-naphthalenyl)-5H-imidazo[4,5-c]pyridine]",MTC,MDBK cells,4 µg/mL
same,EC50,BVDV-1 (strain PE515); [6],0.24 µg/mL
"Cc1cccc(-c2nc3ccn(Cc4ccc(Br)cc4)cc-3n2)c1 [GPJN-60, 5-[(4-Bromophenyl)methyl]-2-(3-methylphenyl)-5H-imidazo[4,5-c]pyridine]",CC50 at 3 days,[2],> 77 µg/mL
same,EC50,[4],6.1 µg/mL
same,TC50,Vero cells,>100 µg/mL
same,EC50,"BVDV-1 (strain PE515); Bovine viral diarrhea virus isolates and strains, MDBK",0.015 µg/mL
"Cc1cn(Cc2ccc(Br)cc2)cc2nc(-c3ccccc3)nc1-2 [GPJN-104, 5-[(4-Bromophenyl)methyl]-7-methyl-2-phenyl-5H-imidazo[4,5-c]pyridine]",MTC,MDBK cells,20 µg/mL
same,EC50,BVDV-1 (strain PE515); [6],0.27 µg/mL
"FC(F)(F)c1cccc(-c2nc3ccn(Cc4ccc(Br)cc4)cc-3n2)c1 [GPJN-87, 5-[(4-Bromophenyl)methyl]-2-[3-(trifluoromethyl)phenyl]-5H-imidazo[4,5-c]pyridine]",CC50 at 72 hours,[1],20 µg/mL
same,EC50,[3],< 0.62 µg/mL
"Brc1ccc(Cn2ccc3nc(CSc4ccccc4)nc-3c2)cc1 [GPJN-83, 5-[(4-Bromophenyl)methyl]-2-[(phenylthio)methyl]-5H-imidazo[4,5-c]pyridine]",CC50 at 72 hours,[1],8 µg/mL
same,EC50,[3],< 0.62 µg/mL
"Brc1cccc(-c2nc3ccn(CCOc4ccccc4)cc-3n2)c1 [GPJN-100, 2-(3-Bromophenyl)-5-(2-phenoxyethyl)-5H-imidazo[4,5-c]pyridine]",MTC,MDBK cells,20 µg/mL
same,EC50,BVDV-1 (strain PE515); [6],0.088 µg/mL
